In patent US20020077365A1, “Method for increasing the effectiveness of antiinfective” (The University of Texas System, priority 2000, published 2002):
Like-named read-outs stand apart in the source and are kept apart here.

Legend:
[1] = test system: Arabidopsis thaliana plants (wild-type and AtPGP-1 overexpressing); assay type: in vivo; details: for germination rate: substance alone (cycloheximide 500 ng/ml or phosphatase inhibitor 1 mM), after 10-20 days; for germination: phosphatase inhibitor 1 mM plus cycloheximide 500 ng/ml
Description: Plant Growth: Arabidopsis seeds were sown in a solid germination media containing MS salts (Sigma Chemical, St. Louis, Mo.), 2% sucrose, 0.8% agar, and vitamins (Valvekens et al., 1992). For selection assays, one of the following, or a combination of both, was added to media (cooled to less than 50° C. before adding) immediately prior to pouring into plates: cycloheximide at a final concentration of 500 ng/ml; α,β-methyleneadenosine 5′-diphosphate at a final concentration of 1 mM. Plant growth was measured by germination percentage after 10-20 days. All other materials and methods were discussed above in Example 2.

[2] = test system: Saccharomyces cerevisiae INVSC1 and YMR4; assay: Yeast growth selection in drug (plates / liquid turbidity); assay type: cell-based
Excerpt: Expression of AtPGP-1 in yeast: The AtPGP-1 cDNA (Arabidopsis thaliana MDR gene, accession #X61370) was subdloned into pVT101 downstream of the ADH promoter to create the AtPGP-1/pVT101 construct. AtPGP-1/pVT101 and pVT101 were transformed into Saccharomyces cerevisiae INVSC1 (genotype: MAT, his3-1, leu2, trp1-289, ura3-52) and YMR4 (genotype: MAThis3-11,15, leu2-3, 112ura35, can Res pho5, 3::ura31) by a PEG lithium acetate procedure (Eble, 1992) and selected on uracil dropout medium.
Yeast Growth: Yeast were grown at 30° C. under conditions of constant selection for uracil auxotrophy. YNB (Bio101, Vista, Calif.) supplemented with CSM (uracil dropout) and 2% glucose was used to grow strains having pVT101 constructs. Cycloheximide (Sigma Chemical, St. Louis, Mo.) was added to liquid media or spread on solid media to achieve a final concentration of 500 ng/ml. Nigericin (Sigma Chemical, St. Louis, Mo.) was added to liquid media or spread on solid media to achieve a final concentration of 25 μg/ml. Yeast strains used in cycloheximide selection assays were always propagated in the presence of the cycloheximide on plates and then streaked onto new plates containing drug or no drug, such that induced resistance existed in each strain at the time of the start of the assay. For selection assays on plates, single colonies were streaked; for selection in liquid media 0.01 ml of saturated culture was added to fresh media containing the drug. The plates shown in figures were grown for 3-5 days before photographs were taken. Yeast selection assays in liquid media were quantitated by turbidity as measured by absorbance at OD600.
The same result was obtained when the yeast strains were cultured in nigericin (FIG. 3C, FIG. 3D, FIG. 5B, FIG. 5C). In FIG. 3C and 3D, starting from the top of the dish clockwise, the cells are as follows: INVSC1 (wild-type) overexpressing AtPGP-1, YMk4 containing the vector alone, YMR4 overexpressing AtPGP-I, and INVSC1 containing the vector alone. When grown without drug, all the cells grow (FIG. 3C). […]

[3] = test system: S. cerevisiae yeast cells (YMR4 and INVSC, with or without AtPGP-1); assay: Yeast growth in suspension with extracellular ATP, adenosine, phosphate and cycloheximide (turbidity OD600); assay type: cell-based; details: for effect on resistance to cycloheximide: YMR4 cells, added to media with cycloheximide, 72 hours, FIG. 14; for yeast growth in high levels of ATP: 100 mM ATP, FIG. 13
Description: Cell lines: Cell lines were the same as those described above in Example 2 and 3. YMR4 MDR1 is the phosphatase mutant yeast strain overexpressing AtPGP-1; YMR4 pVT11 contains vector alone; INVSC MDR1 is the wild-type yeast strain overexpressing AtPGP-1; and INVSC pVT101 contains vector alone.
Selection in drug: To create drug resistant yeast strains, all four cell lines were grown up in the presence of 500 ng/ml of cycloheximide, and transferred to other cycloheximide containing plates after a period of four to six days. This transfer of cell lines and subculturing continued such that the yeast cells grew in the presence of cycloheximide for a period of at least a month.
Growth of cells in suspension for ATP and drug selection experiments: Cells were transferred into 5 ml YNB -URA liquid media for turbidity measurements. All cell lines (both non-drug selected and drug-selected) were grown in media with the addition of either nothing, 500 ng/ml cycloheximide, 100 mM ATP, or 500 ng/ml cycloheximide and 100 mM ATP. Turbidity readings were taken after 48 hours.
Growth of cell lines in suspension for salvage pathway experiments: All cell lines were grown in liquid media either containing drug (for the drug selected lines) or not containing drug (for the non-drug selected lines). When the cultures reached a turbidity of 1.00 as measured at a wavelength of 600 in a spectrophotometer (OD600=1.00), 10 μl of each culture was then removed and placed in either media with nothing added, 3 mM potassium phosphate; 3 mM adenosine; 9 mM potassium phosphate and 3 mM adenosine (for controls); potassium phosphate and cycloheximide; adenosine and cycloheximide; adenosine, cycloheximide, and potassium phosphate. Cell cultures were further grown for 72 hours, and their turbidity was determined by OD600 readings on a spectrophotometer.

[4] = test system: ecto-apyrase of plasma membrane of cholinergic nerve terminal of Torpedo marmorata electric organs; details: Marti et al., 1996; cited from earlier work
[5] = test system: Arabidopsis thaliana WS wild-type plants; assay: Plant sensitivity to herbicides with or without ecto-phosphatase inhibitor; assay type: in vivo; details: inhibitor 5 μg/ml; surflan solution 0.2-20 μl/ml in germination media
Description: Increasing Plant Sensitivity to Herbicides: Arabidopsis thaliana WS wild-type plants were plated on germination media containing two commonly used herbicides, surflan and pendimethalin, in the presence and absence of an ecto-phosphatase inhibitor of Formula II and monitored for their growth in a 22° C. incubator under constant fluorescent illumination.
More specifically, germination media was prepared containing 20 μl/ml, 10 μl/ml, 2 μl/ml, 1 μl/ml, and 0.2 μl/ml of a surflan solution made at the manufacturer's recommended concentration. Compound of Formula II was added to a portion of the germination media at a final concentration of 5 μg/ml.
Arabidopsis thahiana WS wild-type seeds were surface sterilized in a 20% bleach solution for 20 minutes, washed three times in double distilled waster, and resuspended in 0.1% agarose solution. The seeds were then pipetted onto plates containing approximately 3 ml of germination media containing the various concentrations of surflan with and without compound of Formula II. All plates were placed in a 22° C. incubator under constant fluorescent illumination. Growth was assessed daily.
Similar experiments were performed with pendimethalin in the presence and absence of compound of Formula II.

[6] = test system: wild-type yeast strain INVSC with plasmid pvtl01-U; assay: Yeast filter disk zone of inhibition with fungicide chlorothalonil with or without ecto-phosphatase inhibitor; assay type: cell-based, S. cerevisiae; details: plates without ecto-phosphatase inhibitor, 48 hours
Description: Increasing Yeast Sensitivity to Fungicide. Additional experiment were performed to test the ability of ecto-phosphatase inhibitors to increase the effectiveness of the commonly used fungicide chlorothalonil. Yeast was plated on media with or without an ecto-phosphatase inhibitor of Formula X where a paper filter disk soaked in the fungicide was added to the plate. After 48 hours, the zone of inhibition of yeast growth around the filter disk was calculated.
The wild-type yeast strain INVSC with plasmid pvtl01-U (for selection on media lacking uracil) was used in all experiments and each experiment was performed in triplicate. Media used was made by combining YNB (Bio 101, Vista, Calif.), the drop out supplement CSM-URA (Bio 101, Vista, CA), and glucose in water. […]
Twenty μl of an overnight saturated culture of yeast was plated onto each plate, spread, and allowed to dry for 20 minutes. […] The zone of inhibition of yeast growth around the disk was assessed after 48 hours.
Plates with chlorothalonil disks indeed contained a zone of inhibition surrounding the disk. […] The zone of inhibition was calculated by measuring the radius from the center of the disk to the point of noticeable yeast growth (at least 10 measurements per plate), averaging the radii measurements, and using the average radius of the plates to calculate the circular area of the zone of inhibition.

[7] = YMR4 (extracellular phosphatase deficient), vector alone, cycloheximide 500 ng/ml or nigericin 25 μg/ml

C[C@@H]1C[C@@H]([C@H](O)CC2CC(=O)NC(=O)C2)C(=O)[C@@H](C)C1 [cycloheximide]
germination rate ([1]; AtPGP-1 overexpressing plants): 50%
germination rate ([1]; wild-type plants): 2%
yeast growth in drug [2, 7]: did not grow
yeast growth in drug ([2]; wild-type INVSC1, cycloheximide 500 ng/ml): did grow

O=P(O)(O)O [phosphate, potassium phosphate]
effect on resistance to cycloheximide [3]: did not enhance resistance

Cc1ccc(C(=O)Nc2ccc(S(=O)(=O)O)c3cc(S(=O)(=O)O)cc(S(=O)(=O)O)c23)cc1NC(=O)c1cccc(NC(=O)Nc2cccc(C(=O)Nc3cc(C(=O)Nc4ccc(S(=O)(=O)O)c5cc(S(=O)(=O)O)cc(S(=O)(=O)O)c45)ccc3C)c2)c1 [Suramin, 8,8′[Carbonylbis[imino-3,1-phenylenecarbonylimino(4-methyl-3,1-phenylene)carbonylimino]]bis-1,3,5-naphthalenetrisulfonic acid]
inhibition of ecto-apyrase activity [4]: potent non-competitive inhibitor

Cc1cccc(NS(=O)(=O)c2ccc(-c3ccccc3)cc2)c1 [Formula II]
effectiveness of surflan as weed killer in presence of inhibitor [5]: equally effective weed killer at a five fold less concentration

Nc1ncnc2c1ncn2[C@@H]1O[C@H](CO)[C@@H](O)[C@H]1O [adenosine]
effect on resistance to cycloheximide [3]: did not enhance resistance

N#Cc1c(Cl)c(Cl)c(Cl)c(C#N)c1Cl [chlorothalonil]
average radius of inhibition [6]: 0.33 in.

Nc1ncnc2c1ncn2[C@@H]1O[C@H](COP(=O)(O)CP(=O)(O)O)[C@@H](O)[C@H]1O [α,β-methyleneadenosine 5′-diphosphate]
germination ([1]; AtPGP-1 overexpressing plants): no germination at all
germination rate ([1]; AtPGP-1 overexpressing plants): 83%
germination ([1]; wild-type plants): no germination at all
germination rate ([1]; wild-type plants): 90%

CO[C@@H]1C[C@@H](C[C@H]2CC[C@H](C)[C@H]([C@@H](C)C(=O)O)O2)O[C@]2(O[C@](C)([C@H]3CC[C@@](C)([C@@H]4O[C@@H]([C@H]5O[C@@](O)(CO)[C@H](C)C[C@@H]5C)C[C@@H]4C)O3)C[C@H]2C)[C@@H]1C [nigericin]
yeast growth in drug [2, 7]: reduced growth

Nc1ncnc2c1ncn2[C@@H]1O[C@H](COP(=O)(O)OP(=O)(O)OP(=O)(O)O)[C@@H](O)[C@H]1O [ATP]
yeast growth in high levels of ATP and drug ([3]; 100 mM ATP plus 500 ng/ml cycloheximide, cell lines previously resistant to drug): unable to grow
yeast growth in high levels of ATP ([3]; cells not previously selected in drug): able to grow
yeast growth in high levels of ATP ([3]; cells previously grown in drug (cycloheximide-selected), not overexpressing AtPGP-1): not able to grow
